# How the values were obtained:
# MT-4 cell = assay: Cytotoxic effect on MT-4 cell without virus; assay type: cell-based; conditions: at concentration of 30 ug/ml
# Protocol: (§1) About 50,000 cells/ml of MT-4 cell was introduced into a tray having 24 holes. Further, 100 ul of a solution containing a predetermined quantity of oxcetanocin was added, and then it was cultured in a 5% (v/v) carbon dioxide gas incubator at 37° C. for 2 hours. Subsequently, 10^3 to 1.0^4 infective units of HIV were added and cultured for 5 days. Then, the inhibition of cytopathic effect was observed microscopically. Cytotoxic effect of oxcetanocin on MT-4 cell was examined without adding virus according to the above technique.
# mice = assay: Toxicity after 1 intraperitoneal administration in mice; assay type: in vivo; conditions: 1 administration of 800 mg/kg
# [1] = Toxicity, general statement including repetitive administration; assay type: in vivo
# [2] = test system: HIV (Human Immunodeficiency Virus); assay: Inhibition of HIV cytopathic effect in MT-4 cells (microscopic observation); assay type: cell-based
# Protocol: as §1, with “microscopically.” for “microscopically. Cytotoxic effect of oxcetanocin on MT-4 cell was examined without adding virus according to the above technique.”
# [3] = test system: HIV (Human Immunodeficiency Virus); assay: Development of virus antigen in HIV-infected MT-4 cells (fluorescent antibody technique); assay type: cell-based
structure (smiles),measurement,setting,value
"Nc1ncnc2c1ncn2C1OC(CO)C1CO (centres unmarked) [Oxcetanocin, oxcetanocin]",Cytotoxicity (in words),MT-4 cell,not cytotoxic
same,Toxic sign,mice,Any toxic sign has not been observed
same,Toxicity,[1],slightly toxic
same,Inhibition of cytopathic effect (in words),[2],predominantly inhibitory to cytopathic effect
same,Development of virus antigens (in words),[3],very suppressive to development of virus antigens

# Reference: patent US4892876A, “Method for inhibiting HIV and an pharmaceutical composition therefor” (Nippon Kayaku Kabushiki Kaisha, priority 1987, dated 1990)
